Earlier results, collected in PMC6920808, “Preclinical Evaluation of UDCA-Containing Oral Formulation in Mice for the Treatment of Wet Age-Related Macular Degeneration” (Pharmaceutics, 2019).

How the values were obtained:
laser-treated rat model = tested on: laser-treated rat model; parameters: method as in PMID 20565307; settings: intraperitoneally injected, ref [4]
retina = tested on: retina; parameters: method as in earlier work; settings: intravitreally injected, dose higher than 5 μg of TUDCA (5 mg/mL), Balb/C mice, ref [33]
[1] = parameters: method as in PMID 6479887, PMID 30319399; settings: ref [17],[18]

| SMILES | CNV size and vascularity (laser-treated rat model) | early VEGF elevation in the retina (laser-treated rat model) | A- and B-wave amplitudes in the ERG and outer nuclear layer thickness (retina) | pKa [1] |
| --- | --- | --- | --- | --- |
| C[C@H](CCC(=O)NCCS(=O)(=O)O)[C@H]1CC[C@H]2[C@@H]3[C@@H](O)C[C@@H]4C[C@H](O)CC[C@]4(C)[C@H]3CC[C@]12C [TUDCA, tauroursodeoxycholic acid] | reduction | effectively suppress | reduced |  |
| C[C@H](CCC(=O)O)[C@H]1CC[C@H]2[C@@H]3[C@@H](O)C[C@@H]4C[C@H](O)CC[C@]4(C)[C@H]3CC[C@]12C [UDCA, 3α,7β-dihydroxy-5β-cholanoic acid] | reduction | effectively suppress |  | around 5.0 |
